Assay results taken from the METLIN SMRT retention time set (Domingo-Almenara et al. 2019).

Assay: gradient 5% acetonitrile 3 min, to 50% in 2 min, to 85% in 15 min, held 3 min, 100 µL/min
Conditions: column: Zorbax Extend-C18 2.1 x 50 mm; eluents: water / acetonitrile, 0.1% formic acid
In short: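 The mobile phases were water and acetonitrile, each with 0.1% formic acid, pumped at 100 μL/min through a Zorbax Extend-C18 column (2.1 × 50 mm, 1.8 μm). Pure standards were injected as mixtures of ~100 molecules and detected by a quadrupole time-of-flight mass spectrometer in positive and negative ionization mode. Retention time came from computationally picked adduct peaks, each inspected by hand.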

| Compound | RP-LC retention time |
| --- | --- |
| O=C(c1cccs1)N1CCC2(CC1)NC(=O)N(Cc1ccc(F)cc1)C2=O | 764 s |
| CCOC(=O)c1nc2cc(OC)c(OC)cc2[nH]c1=O | 620 s |
| CCn1c(=O)sc2cc(S(=O)(=O)N3CCC(C(=O)NCc4ccc(OC)cc4)CC3)ccc21 | 978 s |
| CN(CC1CCOC1)C(=O)Nc1ccccc1Br (centres undefined) | 736 s |
| Cc1ccn2c(Nc3ccc4c(c3)OCO4)c(-c3cc(Br)ccc3F)nc2c1 | 747 s |
| COc1ccccc1-c1noc(Cn2c(=O)n(-c3ccccc3F)c(=O)c3sccc32)n1 | 880 s |
| Cc1cc(C(=O)N2CCC[C@H]2c2nc(-c3ccccc3)n[nH]2)nn1C | 654 s |
| CC1CC(=O)Nc2ccccc2N1C(=O)c1ccc(Cl)cc1 (centres undefined) | 743 s |
| Cc1ccc(C)c(NS(=O)(=O)c2cc(-c3[nH]ncc3C(=O)N(C)C)oc2C)c1 | 700 s |
| Cc1cccc(-n2c(=O)c3c(cc(C)n3C)n(CC(=O)Nc3ccc(Cl)cc3)c2=O)c1 | 923 s |
| CC1CCN(C(=O)Cn2nc3nc(Nc4ccc(F)cc4)ccn3c2=O)CC1 | 754 s |
| O=C(Nc1ccc(Cl)cc1)C(=O)c1cn(CC(=O)N2CCOCC2)c2ccccc12 | 959 s |
| CC(C)CCNC(=O)c1ccc2c(=O)n(-c3ccccc3)c(N3CCCC3)nc2c1 | 858 s |
| Cc1cccc(CN2CCCN(c3ncccc3-c3nc(C(C)C)no3)CC2)c1 | 733 s |
| Cc1ccc(CNC(=O)C2CCN(c3cnc(N4CCCC4)nc3)CC2)cc1 | 680 s |
| O=C(CC1CCN(C(=O)c2cc(F)ccc2F)C1)NC1CC1 (centres undefined) | 630 s |
| CN1CCN(CCCNC(=O)c2ccc3c(c2)N(C)C(=O)C2CCCCN32)CC1 (centres undefined) | 575 s |
| COc1ccc(C)cc1NC(=O)Cn1nc2nc(N3CCCCC3C)ccn2c1=O (centres undefined) | 840 s |
| O=S(=O)(c1ccc(-c2cnc(C3CCC3)o2)s1)N1CCN(c2ncccn2)CC1 | 1040 s |
| Cn1cc(-c2nc(C(=O)Nc3cc(F)ccc3Cl)cs2)c2cccnc21 | 1260 s |
| COc1ccc(C(=O)NC2CCN(c3cc(C)cc(C)c3)C2=O)cc1 (centres undefined) | 878 s |
| CC(C)NC(=O)C1CCN(c2nc3ccc(-c4cccs4)nc3s2)CC1 | 879 s |
| Cn1c(=O)c(N2CCN(S(=O)(=O)c3ccc(Cl)cc3)CC2)nc2ccncc21 | 674 s |

| Compound | RP-LC retention time |
| --- | --- |
| Brc1cncc(-c2nc(-c3cccc(-c4ccn[nH]4)c3)no2)c1 | 954 s |
| Cc1nc2ccn(Cc3cccs3)c(=O)c2cc1C(=O)NC1CCCC1 | 736 s |
| O=C(NCCn1c(-c2ccc(F)cc2)nc2cccnc21)NCc1ccccc1 | 684 s |
| Cc1nc(-c2cc(S(=O)(=O)N3CCC(C(=O)Nc4cccc(C#N)c4)CC3)c(C)s2)no1 | 949 s |
| Cc1cc(C)c2c(-n3cccc3)nn(CC(=O)NCC3CCCO3)c2n1 (centres undefined) | 753 s |
| CCCN(CC1CCOC1)C(=O)Nc1ccccc1C (centres undefined) | 768 s |
| COc1ccc(CCNc2ncnc3c2cnn3-c2ccccc2)cc1OC | 783 s |
| Cc1ccc(F)cc1S(=O)(=O)N1CC(F)(F)C[C@H]1CN1CCc2ccccc2C1 | 795 s |
| CCOC(=O)C1CCC(CNC(=O)N2CCC(c3nc4ccncc4n3C)C2)CC1 (centres undefined) | 548 s |
| Cc1cc(C)n(-c2ccnc(N3CCC(C(=O)NCCc4ccccn4)CC3)n2)n1 | 575 s |
| Cc1nn(C)c(C)c1CCN(C)C(=O)C1Cn2cccc2C(=O)N1C (centres undefined) | 680 s |
| Cc1cc(C)nc(NS(=O)(=O)c2ccc(Nc3nc(-c4ccc(F)c(C)c4)cs3)cc2)n1 | 1000 s |
| Cc1ccc(C(C)NC(=O)C2CCN(c3nccnc3Oc3ccccc3)CC2)cc1C (centres undefined) | 1070 s |
| COc1cccc(-c2noc(Cc3nnc(-c4cccc(C)c4)o3)n2)c1OC | 961 s |
| CC(NC(=O)c1ccco1)c1nc2ccccc2n1CC(=O)N(C(C)C)C(C)C (centres undefined) | 691 s |
| CC(C)CCNC(=O)CCCn1c(=O)c2cccn2c2ccccc21 | 859 s |
| O=C(Cn1cnc(-c2nc(-c3ccccc3)cs2)c1)Nc1cc(F)ccc1F | 825 s |
| O=C(Cc1nnc2cc(-c3nc(C4CC4)no3)ccn12)NCC1CC1 | 820 s |
| Cn1cc(S(=O)(=O)N2CCCC2)cc1C(=O)N1CCC(Cc2ccccc2)CC1 | 960 s |
| Cc1cccc(OCC(=O)Nc2nc(-c3ccccc3)cs2)c1 | 1090 s |
| COc1ccc(C2(C(=O)N3CCC4(CC3)N(CC3CC3)C(=O)CS4=O)CC2)cc1 (centres undefined) | 677 s |
| CN1c2cc(F)ccc2C(=O)NC12CCN(C(=O)Nc1ccc(F)cc1F)CC2 | 752 s |
| CCOC(=O)CCC(=O)NCC1(c2ccc(OC)cc2)CCCC1 | 856 s |

| Compound | RP-LC retention time |
| --- | --- |
| CCOc1ccc(NC(=O)Cc2nnc3ccc(C(=O)Nc4ccccc4)cn23)cc1 | 798 s |
| Cc1[nH]nc(-c2cc(S(=O)(=O)NCC(C)c3ccccc3)c(C)s2)c1C (centres undefined) | 936 s |
| O=C(NCc1ccccc1OC(F)(F)F)c1ccc(OCC(=O)C2CC2)cc1 | 876 s |
| CN(C(=O)C1CCCN(c2ncnc3c2nc2n3CCCCC2)C1)c1ccccc1 (centres undefined) | 766 s |
| COc1ccc(NC(=O)C2CCc3sc(C(=O)N4CCCC4)cc3C2)c(OC)c1 (centres undefined) | 756 s |
| Clc1ccc(-c2nc(NC3CCCC3)c3ccccc3n2)cc1 | 887 s |
| Cc1ccc(C)c(NC(=O)C2(C)Oc3cccnc3N(C)C2=O)c1 (centres undefined) | 836 s |
| COc1ccc(Nc2c(-c3ccc(N4CCOCC4)cc3)nc3cnccn23)cc1OC | 674 s |
| Cn1cnc(S(=O)(=O)N2CC[C@@H]3COCCN(Cc4ccccc4)[C@@H]3C2)c1 | 586 s |
| Fc1ccc(Nc2c(-c3ccccc3)nc3ccccn23)cc1 | 689 s |
| O=C(NC1CCCC1)c1c2c(nc3ccc(F)cc13)CCC2 | 750 s |
| CC(C)(C)CC(=O)N1C[C@H]2C[C@H](C1)[C@H]1CCCC(=O)N1C2 | 654 s |
| COC[C@@H]1CN(C(=O)Cn2nc(C(F)(F)F)cc2C)C[C@H]1C(N)=O | 622 s |
| CN(C)S(=O)(=O)c1ccc(-c2nnc(C(=O)NCc3ccc(F)cc3)o2)cc1 | 844 s |
| Cc1cc(N(C)C)n2nc(CN3CCN(c4cccc(Cl)c4)CC3)nc2n1 | 635 s |
| COc1ccc(NC(=O)CSc2nnc3c4sc(N5CCCC5)nc4ncn23)cc1Cl | 798 s |
| Cc1ccc(CN2CCc3nc(N4CCN(c5ccccc5F)CC4)ncc3C2)cc1 | 824 s |
| NC(=O)c1cc[nH]c1C1CCCN(Cc2ccc(Br)o2)C1 (centres undefined) | 594 s |
| Cc1ccccc1-n1ccn(Cc2nc(-c3ccc(F)c(Cl)c3)no2)c(=O)c1=O | 942 s |
| O=C(NCCN1CCOCC1)c1ccc(Nc2c(-c3ccccc3)nc3cnccn23)cc1 | 581 s |
| Cc1ccc(S(=O)(=O)N2CCCC(CCC(=O)NC3CCCCC3)C2)cc1 (centres undefined) | 956 s |
| CC(C)NC(=O)c1ccc(OCC2CCN(C(=O)C3(c4ccccc4)CC3)CC2)cc1 | 897 s |
| Cc1ccc(NC(=O)c2ccc(CN3CCN(C)CC3)cc2)cc1Nc1nc(-c2cccnc2)cs1 | 618 s |

| Compound | RP-LC retention time |
| --- | --- |
| O=C(O)C1CCN(S(=O)(=O)c2cccc([N+](=O)[O-])c2)CC1 | 663 s |
| CCN1C(=O)CCc2cc(NC(=O)Cc3cccc(OC)c3)ccc21 | 757 s |
| COCc1nc2ccccc2n1CC(=O)NCC1CCCO1 (centres undefined) | 532 s |
| COc1ccc(NC(=O)Cn2c(N3CCCC3)nc(C)cc2=O)c(OC)c1 | 626 s |
| COc1ccc(C(=O)Nc2cc(-c3cccnc3)no2)c(C)c1 | 760 s |
| COc1ccc(CNC(=O)CN2C(=O)C3CCCCN3c3ccc(S(=O)(=O)N(C)C)cc32)cc1 (centres undefined) | 887 s |
| Cc1cc(C(=O)N2CCC(c3cc(N)on3)CC2)c(C)o1 | 667 s |
| O=C(CN1CCN(Cc2cccc(Cl)c2)C1=O)NCc1ccc(N2CCOCC2)cc1 | 736 s |
| COc1ccc(CNC(=O)c2cnc(OC)nc2)cc1 | 673 s |
| CCOc1ccc(-n2c(=O)c3sccc3n(Cc3nc(-c4cccc(OCC)c4)no3)c2=O)cc1 | 1080 s |
| CC(=O)Nc1ccc2c(c1)N(C(=O)c1cccs1)CCC2 | 695 s |
| COc1ccc(CNC(=O)c2ccc3c(c2)NC(=O)C2CCCCN32)c(OC)c1 (centres undefined) | 795 s |
| CC(=O)N1CCC2(CC1)CC(=O)c1ccc(O)c(O)c1O2 | 585 s |
| Cc1ccc(Cl)cc1NC(=O)Cn1nc(N2CCOCC2)c2ccccc2c1=O | 856 s |
| Cc1ccc(S(=O)(=O)c2cnc(N3CCC4(CC3)OCCO4)nc2N)cc1C | 900 s |
| COc1ccc2[nH]c3c(c2c1)CCNC31CCN(S(=O)(=O)c2c(C)nn(C)c2C)CC1 | 641 s |
| CCn1c(=O)sc2cc(S(=O)(=O)N3CCC(C(=O)N(C)C4CCCCC4)CC3)ccc21 | 958 s |
| COc1ccc(C2C(C(=O)Nc3ccc4c(c3)OCCO4)c3ccccc3C(=O)N2C)cc1 (centres undefined) | 832 s |
| COCCNc1c(-c2cccc(F)c2)nc2sc(C(=O)N(C)C)c(C)n12 | 742 s |
| COc1ccc(CNC(=O)Cn2cccc2-c2nnc(-c3ccccc3)o2)cc1 | 862 s |
